Experiments:
[1] = tested on: HepG2 cells; assay: HepG2 cell viability assay (CellTiter-Glo, cellular ATP); format: cell-based; conditions: 24 hr, serum-free OptiMEM
Protocol: (§1) HepG2 cells (ATCC, Cat.:HB-8065) were maintained in Growth medium—Eagle's Minimum Essential Medium (Corning, 10-010-CVR), 10% FBS (Gibco, 10099-141), Penicillin (100 units/mL), Streptomycin (100 μg/mL). HepG2 cells were incubated at 37° C., 5% CO2. HepG2 cells were plated in black clear bottom 96-well plates (Corning, 3063) at 40,000 cells/well in 100 μL of growth media. After an overnight incubation, the culture media were changed to serum-free OptiMEM media (Gibco, 31985-062), 90 μL/well. Vehicle, PF-06446846 hydrochloride, berberine, or test compound was added to the culture media, 10 μL/well. After 24 hr cellular ATP levels were measured using CellTiter-Glo® 2.0 Assay (Promega, G9242).

[2] = tested on: PCSK9; assay: PCSK9 ELISA of HepG2 culture medium; format: cell-based; conditions: 24 hr
Protocol: as §1, with “flat” for “black clear”, “3599)” for “3063)”, “media(Gibco,” for “media (Gibco,”, “medium was harvested, and 10 μL of the medium” for “cellular ATP levels”, “used for the PCSK9 ELISA(R&D Systems, SPC900).” for “measured using CellTiter-Glo® 2.0 Assay (Promega, G9242).”

[3] = tested on: PCSK9 mRNA; assay: RT-Q-PCR analysis of PCSK9 mRNA in HepG2 cells; format: cell-based; conditions: Homo sapiens, 24 h, normalized to GAPDH, read-out: HepG2 Q-PCR PCSK9 mRNA level decrease (10 μM)
Protocol: HepG2 cells (ATCC, Cat.:HB-8065) were maintained in Growth medium—Eagle's Minimum Essential Medium (Corning, 10-010-CVR), 10% FBS (Gibco, 10099-141), Penicillin (100 units/mL), Streptomycin (100 μg/mL). HepG2 cells were incubated at 37° C., 5% CO2.
Cells were cultured in growth medium as described above and treated with the vehicle, Berberine or test compound for 24 h. The RNA was extracted using the Total RNA mini Kit (Tiangen, Beijing, China) according to the manufacturer's instructions. Reverse transcription was carried out using the High-Capacity cDNA reverse transcription kit (Thermo Fisher Scientific). Quantitative real-time PCR was performed using a reaction mixture containing cDNA, specific primers [PCSK9, 5′-[…]-3′ (forward) and 5′-[…]-3′ (reverse); GAPDH, 5′-[…]-3′ (forward) and 5′-[…]-3′ (reverse)] and Maxima SYBR Green/ROX qPCR Master Mix(Thermo Fisher Scientific). PCR amplification was carried out in a Real-Time PCR System. The real-time PCR conditions were 37° C. 10 min; 95° C. 10 min; 95° C. 15 s, 60° C. 30 s, 72° C. 30 s, 40 cycle. The amount of mRNA was normalized to the GAPDH level in the same samples.

[4] = Metabolic stability in human liver microsomes; format: in vitro ADME; conditions: human liver microsomes 0.5 mg/mL, 37° C., read-out: Metabolic stability T1/2 (minute) Human
Protocol: (§2) Metabolic Stability of Test Compounds in Incubation with Human, and Rat Liver Microsomes Study Details: • Test concentration: 1 μM; • Reference compound: Ketanserin; • Test systems: human, and rat liver microsomes (from Corning or Xenotech) with final liver microsomal protein concentration of 0.5 mg/mL; • Incubation condition: 0, 5, 15, 30, and 45 min at 37° C.; • Sample size: Duplicates (n=2); • Bioanalytical method: LC-MS/MS;
(§3) [formula] [formula] [formula] • where QH is the hepatic blood flow (mL/min/kg), fub is the fraction of unbound drug in plasma which is assumed to be 1, Clint is the in vitro intrinsic clearance.

[5] = Metabolic stability in rat liver microsomes; format: in vitro ADME; conditions: rat liver microsomes 0.5 mg/mL, 37° C., read-out: Metabolic stability T1/2 (minute) Rat
Protocol: as §2, §3

SMILES | HepG2 Survival assay (10 μM) [1] | HepG2 PCSK9 ELISA (10 μM) % inhibition [2] | inhibition at 10 µM [3] | half-life at 1 μM [4] | half-life at 1 μM [5]
CC(C)NC(=O)CN(CC(=O)Nc1ccc(Oc2ccc(C(F)F)cc2)cc1)C(=O)c1cc2cccc(F)c2[nH]1 [Compound 201-327] | 98% | 90% | 88% | 14.4 min | 35.4 min
CC(C)NC(=O)CN(CC(=O)Nc1ccc(Oc2ccc(C(F)(F)F)cc2)cc1)C(=O)c1cc2cccc(F)c2[nH]1 [Compound 201-275] | 92% | 80% | 75% | 57.2 min | 341 min
COc1ccc(Oc2ccc(NC(=O)CN(CC(=O)NC3CC3)C(=O)c3cc4cccc(C#N)c4[nH]3)cc2)cc1 [Compound 201-326] | 112.5% | 83% |  |  | 
O=C(CN(CC(=O)NC1CC1)C(=O)c1ccc(C(F)(F)F)[nH]1)Nc1ccc(Oc2ccc(C(F)(F)F)cc2)cc1 [Compound 201-293] | 99% | 100% | 50% | 98.7 min | 417 min
COc1ccc2cc3[n+](cc2c1OC)CCc1cc2c(cc1-3)OCO2 [Berberine, reference compound] |  | 52% | 35% |  | 
COc1ccc(Oc2ccc(NC(=O)CN(CC(=O)NC3CC3)C(=O)c3ccc(C(F)(F)F)[nH]3)cc2)cc1 [Compound 201-322] | 89.6% |  |  |  | 
COc1ccc(Oc2ccc(NC(=O)CN(CC(=O)NC3CC3)C(=O)c3ccc(C(F)(F)F)o3)cc2)cc1 [Compound 201-318] | 101.6% |  |  |  | 
CC(C)NC(=O)CN(CC(=O)Nc1ccc(Oc2ccc(F)c(F)c2)cc1)C(=O)c1cc2cccc(F)c2[nH]1 [Compound 201-277] | 90% | 100% | 86% | 40.2 min | 45.4 min
COc1ccc(Oc2ccc(NC(=O)CN(CC(=O)NC(C)C)C(=O)c3ccc(C(F)(F)F)o3)cc2)cc1 [Compound 201-317] | 100.8% |  |  |  | 
CC(C)NC(=O)CN(CC(=O)Nc1ccc(Oc2cc(F)c(F)c(F)c2)cc1)C(=O)c1cc2cccc(C#N)c2[nH]1 [Compound 201-332] | 99% | 89% | 85% | 22.4 min | 38.7 min
CC(C)c1ccc(Oc2ccc(NC(=O)CN(CC(=O)NC3CC3)C(=O)c3ccc(C(F)(F)F)[nH]3)cc2)cc1 [Compound 201-320] | 87.3% | 93% | 80% | 93 min | 20.8 min
CCc1ccc(Oc2ccc(NC(=O)CN(CC(=O)NC(C)C)C(=O)c3cc4cccc(F)c4[nH]3)cc2)cc1 [Compound 201-276] | 99% | 94% | 54% | 46.7 min | 42.4 min
O=C(CN(CC(=O)NC1CC1)C(=O)c1cc2cccc(F)c2[nH]1)Nc1ccc(Oc2ccc(C(F)(F)F)cc2)cc1 [Compound 201-287] | 96% | 99% | 56% | 100 min | 138 min
COc1ccc(Oc2ccc(NC(=O)CN(CC(=O)NC(C)C)C(=O)c3cc4cccc(F)c4[nH]3)cc2)cc1 [Compound 201-313] | 89.4% | 98% |  |  | 
CC(C)c1ccc(Oc2ccc(NC(=O)CN(CC(=O)NC3CC3)C(=O)c3ccc(C(F)(F)F)o3)cc2)cc1 [Compound 201-316] | 108.4% | 89% |  |  | 
CC(C)NC(=O)CN(CC(=O)Nc1ccc(Oc2ccc(C(C)C)cc2)cc1)C(=O)c1ccc(C(F)(F)F)[nH]1 [Compound 201-319] | 76.1% | 96% | 60% |  | 
CC(C)NC(=O)CN(CC(=O)Nc1ccc(Oc2ccc(C(C)C)cc2)cc1)C(=O)c1ccc(C(F)(F)F)o1 [Compound 201-315] | 102% | 89% |  |  | 
CC(C)NC(=O)CN(CC(=O)Nc1ccc(Oc2ccc(C(F)(F)F)cc2)cc1)C(=O)c1cc2cccc(C#N)c2[nH]1 [Compound 201-284] | 101% | 94% | 90% | 64 min | 66 min
CC(C)c1ccc(Oc2ccc(NC(=O)CN(CC(=O)NC3CC3)C(=O)c3cc4cccc(F)c4[nH]3)cc2)cc1 [Compound 201-312] | 102.7% | 89% | 50% | 52.8 min | 29.6 min
CC(C)c1ccc(Oc2ccc(NC(=O)CN(CC(=O)NC3CC3)C(=O)c3cc4cccc(C#N)c4[nH]3)cc2)cc1 [Compound 201-324] | 101.5% | 72% |  |  | 
COc1ccc(Oc2ccc(NC(=O)CN(CC(=O)NC3CC3)C(=O)c3cc4cccc(F)c4[nH]3)cc2)cc1 [Compound 201-314] | 103.7% | 97% |  |  | 
CC(C)NC(=O)CN(CC(=O)Nc1ccc(Oc2ccc(C(F)F)cc2)cc1)C(=O)c1cc2cccc(C#N)c2[nH]1 [Compound 201-329] | 106% | 91% | 73% | 14.3 min | 17.5 min
CC(C)NC(=O)CN(CC(=O)Nc1ccc(Oc2ccc(C(C)C)cc2)cc1)C(=O)c1cc2cccc(F)c2[nH]1 [Compound 201-311] | 105.9% | 85% |  |  | 
CC(C)NC(=O)CN(CC(=O)Nc1ccc(Oc2ccc(C(C)C)cc2)cc1)C(=O)c1cc2cccc(C#N)c2[nH]1 [Compound 201-323] | 105.6% | 79% |  |  | 
